In US20240390487A1, “TLR AGONISTS FOR REDUCING ACTIVATION-INDUCED PD-1 EXPRESSION ON T CELLS AND METHODS OF USE” (WISCONSIN ALUMNI RESEARCH FOUNDATION, priority 2016, published 2024):

Test system: Purified DC
Assay: IL-12 p70 ELISA of culture supernatant of TLR-agonist-stimulated DC
Type: cell-based, mice
Details: 24 hours, IL12 p70 by ELISA, versus media alone
Procedure: FIGS. 14A-14D. Changes in PD-1 expression following TLR stimulation are mediated by IL-12 secreted from APCs. Panel A: Purified OT-1 T cells (T), B cells (B), or dendritic cells (DC) were activated with SIINFEKL peptide (SEQ ID NO:1, OVA) or with a non-specific peptide (NS) in the presence of either TLR1/2 (TLR1/2) agonist, TLR7 agonist (TLR7), or media alone. After 24 hours, cells were washed and co-cultured with naïve purified OT-1 CD8+ T cells for an additional 24 hours and then assessed for expression of the indicated surface receptors (4-1BB, CD3, PD-1, LAG3, CTLA-4, and TIM3) by flow cytometry. Shown is the MFI for each marker, with samples assessed in triplicate. Panel B: Purified DC were stimulated in the presence of TLR1/2 agonist, TLR7 agonist, or media alone. After 24 hours, media was collected and used for culture of purified OT-1 CD8+ T cells with naïve DC in the presence of SIINFEKL peptide (SEQ ID NO:1, OVA) or non-specific (NS) peptide. After 24 hours, cells were assessed for expression of the indicated surface receptors (4-1BB, PD-1, LAG3, and CTLA-4) by flow cytometry. Shown is mean and standard error of the MFI for each marker, with samples assessed in triplicate. Panel C: Purified DC were stimulated in the presence of TLR1/2 agonist (Pam3), TLR3 agonist (PolyIC), TLR4 agonist (MPLA), TLR7/8 agonists (Gard, R848), TLR9 agonist (ODN), or media only (none) for 24 hours. Culture supernatant was then evaluated for the presence of IL12 p70 by ELISA. Asterisks indicate significant (p<0.05) IL-12 release compared to media alone. Panel D: Purified DC were stimulated in the presence of TLR1/2 agonist, TLR7 agonist, or media alone. After 24 hours, medium was collected and used for culture of purified OT-1 CD8+ T cells with naïve DC in the presence of SIINFEKL peptide (SEQ ID NO:1, OVA) and, where indicated, 0.1 ng/ml IL-12 or 0.12 μg/mL anti-IL-12 antibody. After 24 hours, cells were assessed for expression of the indicated surface receptors (4-1BB, PD-1, LAG3, and CTLA-4) by flow cytometry. Shown is mean and standard error of the MFI for each marker, with samples assessed in triplicate and are representative of two similar experiments. Asterisks indicate P<0.01.
Changes in PD-1 expression following TLR stimulation are mediated by IL-12 secreted from APCs: TLR are expressed by both T cells and professional APC. To determine if the effects on T-cell checkpoint expression were mediated by direct effects of TLR ligands on T cells or APC, purified OT-1 T cells were activated with SIINFEKL peptide (SEQ ID NO:1) alone or in the presence of TLR1/2 or TLR7 agonist, or with purified DC or B cells pre-treated with TLR agonists. After 24 hours cells were evaluated for expression of 4-1BB, CD3, PD-1, LAG-3, CTLA-4, and TIM-3. […]

Row | Molecule | secretion of IL-12 by DC
1 | CCNCc1nc2c(N)nc3ccccc3c2n1CC(C)(C)O [Gardiquimod] | greatest secretion
2 | Monophosphoryl Lipid A [MPLAs] | No significant secretion
3 | Pam3CSK4 | greatest secretion
4 | Poly(I:C) [PolyI:C] | No significant secretion
